In patent publication US20230303486A1, “CYCLOBUTYL-UREA DERIVATIVES” (Idorsia Pharmaceuticals Ltd, priority 2020, published 2023):
Like-named read-outs stand apart in the source and are kept apart here.

Tested on: primary neuronal cultures from embryonic rat brains
Experiment: Rat oscillation assay (FLIPR, neuronal calcium oscillations)
Assay type: cell-based
Description: This assay is a functional phenotypic assay designed to mimic epileptic seizures using primary neuronal cultures from embryonic rat brains, which form a functional neuronal network that generate synchronized intracellular calcium concentration oscillations when cultured at high density in 384-well plate. The epileptic phenotype is induced by incubating the neurons in magnesium-free assay buffer, that results in increased probability of NMDA receptor activation, leading to an increased frequency and amplitude of intracellular calcium oscillations. Once neurons are incubated with the calcium indicator dye Fluo-8 AM (Tebu-bio), neuronal calcium oscillations can be monitored in real time using FLIPR® Tetra (fluorometric plate reader, Molecular Devices). With these recordings, the effect of anti-epileptic drugs can be quantified. The anti-epileptic effect of compounds, which activate directly or indirectly the Kv7 channels can be modulated by the Kv7 channel blocker XE-991. The assay was performed as described previously (Pacico N, Mingorance-Le Meur A. New In Vitro Phenotypic Assay for Epilepsy: Fluorescent Measurement of Synchronized Neuronal Calcium Oscillations. PLoS ONE 9(1) 2014) with modifications described hereafter.
Animal care followed standard procedures in accordance with swiss institutional guidelines. Dissociated neuronal cultures were obtained from cerebral cortices of embryonic Wistar rats at embryonic stage E18 (Charles River). The uterine horns were removed by caesarian surgery from deeply anesthetized rats (Isofurane) and sacrificed by decapitation. The embryos were decapitated by closing forceps. The brains were isolated and dissected one by one in ice-cold PBS (Life Technologies) under optical control using a binocular. Meninges, olfactory bulbs, and basal ganglia were removed. Cortical hemispheres (still including the hippocampus) were cut in small pieces with tweezers and placed on ice in prechilled Hibernate-E medium (Life technology). The hemispheres were then incubated in 10 mL of Hibernate-E containing 15 U/mL papain (Worthington) for 25 min at 30° C. with gentle mixing every 10 min. Genomic DNA was then digested by prolonging the incubation during 10 min at 37° C. in presence of 4 U/mL rDNase I (Ambion). The obtained suspension was then centrifuged at 800 g for 5 min and the cell pellet was resuspended in 2 mL Hibernate-E and gently dissociated by pipetting up and down 10 times with a plastic Pasteur pipette resulting in a homogenous cell suspension. This suspension was immediately filtered through a 70 µm cell strainer (MACS® SmartStrainer, Miltenyi), collected in 10 mL Hibernate-E and centrifuged at 800 g for 5 min. The cell pellet was resuspended in Neurobasal medium, supplemented with 2% B-27, 0.5 mM Glutamax-I, 100 U/mL penicillin, 100 µg/mL streptomycin (Life Technologies) and diluted at the final concentration of 300′000 cells/mL. One day before plating the cells, 384-well plates were coated with 25 µL/well of 0.1 % poly-L-lysine solution (Sigma), incubated overnight at 37° C., washed two times with sterile distilled water and allowed to dry at room temperature for >2 h. The neurons were seeded at a density of 15′000 cells/well in 50 µL/well in a 384-well black, clear-bottomed plates (Corning) and subsequently maintained in an incubator at 37° C., 5% CO2 and 95% humidity for 8 to 10 days. After 3 and 7 days, 40% of media was renewed under sterile conditions.
Neurons seeded in the assay plates were washed with Hank’s balanced salt solution (HBSS) devoid of Ca^2+ and Mg^2+, supplemented with 20 mM HEPES (Life Technologies) and 2 mM CaCl2 (Sigma), pH 7.4 (hereafter called Assay buffer) using a Biotek EL406 plate washer. Neurons were loaded with 1 µM Fluo-8 AM in Assay buffer for 15 min at 37° C., 5% CO2. […]

[1] = Rattus norvegicus, 20 min, 20 min after compound addition, AUC of fluorescence, read-out: FLIPR: IC50 [nM] 20 min
[2] = Rattus norvegicus, Cortical neurone, acute phase, ratio of AUC fluorescence before and after compound addition, rat cortical neurons, Mg-free buffer, read-out: FLIPR: IC50 [nM] acute
[3] = 20 min after compound addition, AUC of fluorescence, read-out: FLIPR: IC50 [nM] 20 min
[4] = acute phase, ratio of AUC fluorescence before and after compound addition, rat cortical neurons, Mg-free buffer, read-out: FLIPR: IC50 [nM] acute

For COCC(NC(=O)NC1CC(C(F)F)C1)c1ccnc(OCC(F)(F)F)c1 (racemic) [Example 31, (±)-1-(3-Difluoromethyl-Cyclobutyl)-3-{2-Methoxy-1-[2-(2,2,2-Trifluoro-Ethoxy)-Pyridin-4-yl]-Ethyl}-Urea], the IC50 [1] was 763 nM and the IC50 [2] was 190 nM.

Compound COCC(NC(=O)NC1CC(C(F)(F)F)C1)c1ccnc(OCC(F)(F)F)c1 (racemic) [Example 32, (±)-1-{2-Methoxy-1-[2-(2,2,2-Trifluoro-Ethoxy)-Pyridin-4-yl]-Ethyl}-3-(3-Trifluoromethyl-Cyclobutyl)-Urea] has an IC50 [1] of 303 nM and an IC50 [2] of 67 nM.

For CC(NC(=O)NC1CC(C(F)F)C1)c1ccnc(OC(F)F)c1 (racemic) [Example 33, (±)-1-[1-(2-Difluoromethoxy-Pyridin-4-yl)-Ethyl]-3-(3-Difluoromethyl-Cyclobutyl)-Urea], the IC50 [1] was 1510 nM and the IC50 [2] was 946 nM.

Compound Cc1nc(OCC(F)(F)F)cc(C(C)NC(=O)NC23CC(C(F)(F)F)(C2)C3)n1 (racemic) [Example 34, (±)-1-{1-[2-Methyl-6-(2,2,2-Trifluoro-Ethoxy)-Pyrimidin-4-yl]-Ethyl}-3-(3-Trifluoromethyl-Bicyclo[1.1.1]Pent-1-yl)-Urea] has an IC50 [1] of 291 nM and an IC50 [2] of 247 nM.

O=C(NCc1cccc(C(F)(F)F)c1)NC1CC(C(F)(F)F)C1 (single isomer, unassigned) [Example 50, 1-(3-(Trifluoromethyl)Benzyl)-3-(3-(Trifluoromethyl)Cyclobutyl)Urea] showed an IC50 [3] of 82 nM and an IC50 [4] of 68 nM.

O=C(NCc1cccc(C(F)(F)F)c1)NC1CC(C(F)(F)F)C1 (single isomer, unassigned) [Example 51, 1-(3-(Trifluoromethyl)Benzyl)-3-(3-(Trifluoromethyl)Cyclobutyl)Urea] showed an IC50 [3] of 515 nM and an IC50 [4] of 363 nM.

O=C(NCc1cccc(C(F)(F)F)c1)NC1CC(C(F)F)C1 (single isomer, unassigned) [Example 52, 1-(3-(Difluoromethyl)Cyclobutyl)-3-(3-(Trifluoromethyl)Benzyl)Urea] showed an IC50 [3] of 738 nM and an IC50 [4] of 660 nM.

Cc1nc(OCC(F)(F)F)cc([C@H](C)NC(=O)NC23CC(C(F)(F)F)(C2)C3)n1 (single isomer, unassigned) [Example 54] gave an IC50 [1] of 216 nM and an IC50 [2] of 218 nM.

In the case of O=C(NCc1ccnc(OCC(F)(F)F)c1)NC1CC(C(F)F)C1 (single isomer, unassigned) [Example 55, 1-(3-(Difluoromethyl)Cyclobutyl)-3-((2-(2,2,2-Trifluoroethoxy)Pyridin-4-yl)Methyl)Urea], the IC50 [3] is reported as 1160 nM and the IC50 [4] is reported as 701 nM.

Compound O=C(NCc1ccnc(OCC(F)(F)F)c1)NC1CC(C(F)F)C1 (single isomer, unassigned) [Example 56, 1-(3-(Difluoromethyl)Cyclobutyl)-3-((2-(2,2,2-Trifluoroethoxy)Pyridin-4-yl)Methyl)Urea] has an IC50 [3] of 547 nM and an IC50 [4] of 123 nM.

In the case of C[C@H](NC(=O)NC1CC(C(F)F)C1)c1cccc(OC(F)(F)F)c1 (single isomer, unassigned) [Example 57], the IC50 [3] is reported as 314 nM and the IC50 [4] is reported as 146 nM.

C[C@H](NC(=O)NC1CC(C(F)F)C1)c1cccc(OC(F)(F)F)c1 (single isomer, unassigned) [Example 58] showed an IC50 [3] of 105 nM and an IC50 [4] of 51 nM.

For O=C(NCc1cccc(C(F)(F)F)c1)NC1CC(F)(F)C1 [Example 1, 1-(3,3-Difluoro-Cyclobutyl)-3-(3-Trifluoromethyl-Benzyl)-Urea], the IC50 [1] was 855 nM and the IC50 [2] was 486 nM.

Work on CC(NC(=O)NC12CC(C1)C2)c1cccc(C(F)(F)F)c1 (centres unmarked) [Example 2, 1-Bicyclo[1.1.1]Pent-1-yl-3-[1-(3-Trifluoromethyl-Phenyl)-Ethyl]-Urea] yielded an IC50 [1] of 466 nM and an IC50 [2] of 291 nM.

For CC(NC(=O)NC1CC(C(F)F)C1)c1cccc(C(F)(F)F)c1 (centres unmarked) [Example 3, 1-(3-Difluoromethyl-cyclobutyl)-3-[1-(3-trifluoromethylphenyl)-ethyl]-urea], the IC50 [1] was 334 nM and the IC50 [2] was 188 nM.

Compound CC(NC(=O)NC12CC(F)(C1)C2)c1cccc(C(F)(F)F)c1 (centres unmarked) [Example 4, 1-(3-Fluoro-bicyclo[1.1.1]pent-1-yl)-3-[1-(3-trifluoromethylphenyl)-ethyl]-urea] has an IC50 [1] of 1060 nM and an IC50 [2] of 138 nM.

CC(NC(=O)NC12CC(C(F)F)(C1)C2)c1cccc(C(F)(F)F)c1 (centres unmarked) [Example 5, 1-(3-Difluoromethyl-bicyclo[1.1.1]pent-1-yl)-3-[1-(3-trifluoromethyl-phenyl)-ethyl]-urea] was tested, and the IC50 [1] was 216 nM and the IC50 [2] was 296 nM.

For CC(NC(=O)NC12CC(C1)C2)c1cccc(OC(F)(F)F)c1 (centres unmarked) [Example 6, 1-Bicyclo[1.1.1]Pent-1-yl-3-[1-(3-Trifluoromethoxy-Phenyl)-Ethyl]-Urea], the IC50 [1] was 271 nM and the IC50 [2] was 126 nM.

CC(NC(=O)NC1CC(C(F)F)C1)c1cccc(OC(F)(F)F)c1 (centres unmarked) [Example 7, 1-(3-Difluoromethyl-cyclobutyl)-3-[1-(3-trifluoromethoxyphenyl)-ethyl]-urea] showed an IC50 [1] of 100 nM and an IC50 [2] of 63 nM.

With CC(NC(=O)NC12CC(F)(C1)C2)c1cccc(OC(F)(F)F)c1 (centres unmarked) [Example 8, 1-(3-Fluoro-bicyclo[1.1.1]pent-1-yl)-3-[1-(3-trifluoromethoxyphenyl)-ethyl]-urea] the IC50 [1] was 331 nM and the IC50 [2] was 168 nM.

In the case of O=C(NC1CC(O)(C(F)(F)F)C1)NC(c1cccc(C(F)(F)F)c1)C(F)F (centres unmarked) [Example 9, 1-[2,2-Difluoro-1-(3-Trifluoromethyl-Phenyl)-Ethyl]-3-(3-Hydroxy-3-Trifluoromethyl-Cyclobutyl)-Urea], the IC50 [1] is reported as 1420 nM and the IC50 [2] is reported as 766 nM.

For CC1(NC(=O)NC(c2cccc(C(F)(F)F)c2)C(F)F)CC(F)(F)C1 (centres unmarked) [Example 10, 1-(3,3-Difluoro-1-Methyl-Cyclobutyl)-3-[2,2-Difluoro-1-(3-TrifluoromethylPhenyl)-Ethyl]-Urea], the IC50 [1] was 51 nM and the IC50 [2] was 57 nM.

CC(NC(=O)NC12CC(C1)C2)c1cccc(OC(F)F)c1 (centres unmarked) [Example 11, 1-Bicyclo[1.1.1]Pent-1-yl-3-[1-(3-Difluoromethoxy-Phenyl)-Ethyl]-Urea] showed an IC50 [1] of 1360 nM and an IC50 [2] of 741 nM.

For O=C(NC(CO)c1cccc(C(F)(F)F)c1)NC12CC(C(F)F)(C1)C2 (centres unmarked) [Example 12, 1-(3-Difluoromethyl-Bicyclo[1.1.1]Pent-1-yl)-3-[2-Hydroxy-1-(3-Trifluoromethyl-Phenyl)-Ethyl]-Urea], the IC50 [1] was 164 nM and the IC50 [2] was 154 nM.

O=C(NC(c1cccc(C(F)(F)F)c1)C(F)F)NC12CC(C(F)F)(C1)C2 (centres unmarked) [Example 13, 1-(3-Difluoromethyl-bicyclo[1.1.1]pent-1-yl)-3-[2,2-difluoro-1-(3-trifluoromethyl-phenyl)-ethyl]-urea] showed an IC50 [1] of 41 nM and an IC50 [2] of 14 nM.

Work on COCC(NC(=O)NC12CC(C(F)F)(C1)C2)c1cccc(C(F)(F)F)c1 (centres unmarked) [Example 14, 1-(3-Difluoromethyl-bicyclo[1.1.1]pent-1-yl)-3-[2-methoxy-1-(3-trifluoromethyl-phenyl)-ethyl]-urea] yielded an IC50 [1] of 79 nM and an IC50 [2] of 37 nM.

O=C(NCc1cccc(C(F)(F)F)c1F)NC12CC(C(F)F)(C1)C2 [Example 15, 1-(3-Difluoromethyl-bicyclo[1.1.1]pent-1-yl)-3-(2-fluoro-3-trifluoromethyl-benzyl)-urea] was tested, and the IC50 [1] was 960 nM and the IC50 [2] was 619 nM.

Work on O=C(NCc1cc(F)cc(C(F)(F)F)c1)NC12CC(C(F)F)(C1)C2 [Example 16, 1-(3-Difluoromethyl-bicyclo[1.1.1]pent-1-yl)-3-(3-fluoro-5-trifluoromethyl-benzyl)-urea] yielded an IC50 [1] of 848 nM and an IC50 [2] of 716 nM.
